Measured values: PubChem BioAssay (NCI)
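How tested: cells in 96-well plates exposed to compound for 48 hours at five concentrations. At the GI50, growth is halved. The concentration for full growth arrest is given as TGI.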

Key:
Experiment in all cases: DTP human tumour cell line panel, 48 h
[1] = system: 786-0 renal
[2] = system: A498 renal
[3] = system: A549 NSCLC
[4] = system: ACHN renal
[5] = system: BT-549 breast
[6] = system: CAKI-1 renal
[7] = system: CCRF-CEM leukemia
[8] = system: COLO 205 colon
[9] = system: DU-145 prostate
[10] = system: EKVX NSCLC
[11] = system: HCC-2998 colon
[12] = system: HCT-116 colon
[13] = system: HCT-15 colon
[14] = system: HL-60(TB) leukemia
[15] = system: HOP-62 NSCLC
[16] = system: HOP-92 NSCLC
[17] = system: HS 578T breast
[18] = system: HT29 colon
[19] = system: IGROV1 ovarian
[20] = system: K-562 leukemia
[21] = system: KM12 colon
[22] = system: MALME-3M melanoma
[23] = system: MCF7 breast
[24] = system: MDA-MB-231 breast
[25] = system: MDA-MB-435
[26] = system: MOLT-4 leukemia
[27] = system: NCI-H226 lung
[28] = system: NCI-H460 lung
[29] = system: NCI-H522 lung
[30] = system: NCI/ADR-RES ovarian
[31] = system: OVCAR-3 ovarian
[32] = system: OVCAR-4 ovarian
[33] = system: OVCAR-5 ovarian
[34] = system: OVCAR-8 ovarian
[35] = system: PC-3 prostate
[36] = system: RPMI-8226 leukemia
[37] = system: SF-268 CNS
[38] = system: SF-295 CNS
[39] = system: SF-539 CNS
[40] = system: SK-MEL-2 melanoma
[41] = system: SK-MEL-28 melanoma
[42] = system: SK-MEL-5 melanoma
[43] = system: SK-OV-3 ovarian
[44] = system: SN12C renal
[45] = system: SNB-19 CNS
[46] = system: SNB-75 CNS
[47] = system: SR leukemia
[48] = system: SW-620 colon
[49] = system: T-47D breast
[50] = system: TK-10 renal
[51] = system: U251 CNS
[52] = system: UACC-257 melanoma
[53] = system: UACC-62 melanoma
[54] = system: M14 melanoma
[55] = system: NCI-H23 lung
[56] = system: RXF 393 renal
[57] = system: UO-31 renal

Fc1ccc(-c2cc3nc(C(Cl)Cl)nc(-c4ccc(Cl)cc4)n3n2)cc1
GI50 [1]: 23.5 µM | TGI [1]: > 100 µM | GI50 [2]: 4.95 µM | TGI [2]: 53.1 µM | GI50 [3]: 1.8 µM | TGI [3]: 4.53 µM | GI50 [4]: 1.6 µM | TGI [4]: 4.03 µM | GI50 [5]: 94.7 µM | TGI [5]: > 100 µM | GI50 [6]: 2.96 µM | TGI [6]: > 100 µM | GI50 [7]: > 100 µM | TGI [7]: > 100 µM | GI50 [8]: 1.84 µM | TGI [8]: 4.05 µM | GI50 [9]: 1.91 µM | TGI [9]: 5.84 µM | GI50 [10]: 2.94 µM | TGI [10]: 14.1 µM | GI50 [11]: 1.54 µM | TGI [11]: 3.14 µM | GI50 [12]: 3.3 µM | TGI [12]: > 100 µM | GI50 [13]: 2.5 µM | TGI [13]: > 100 µM | GI50 [14]: 2 µM | TGI [14]: > 100 µM | GI50 [15]: 2.53 µM | TGI [15]: > 100 µM | GI50 [16]: 4.66 µM | TGI [16]: > 100 µM | GI50 [17]: > 100 µM | TGI [17]: > 100 µM | GI50 [18]: 1.66 µM | TGI [18]: 5.36 µM | GI50 [19]: > 100 µM | TGI [19]: > 100 µM | GI50 [20]: 4.39 µM | TGI [20]: > 100 µM | GI50 [21]: 3.01 µM | TGI [21]: > 100 µM | GI50 [22]: > 100 µM | TGI [22]: > 100 µM | GI50 [23]: 2.45 µM | TGI [23]: > 100 µM | GI50 [24]: 4.08 µM | TGI [24]: > 100 µM | GI50 [25]: 6.6 µM | TGI [25]: > 100 µM | GI50 [26]: 4.25 µM | TGI [26]: > 100 µM | GI50 [27]: > 100 µM | TGI [27]: > 100 µM | GI50 [28]: 1.76 µM | TGI [28]: 4.69 µM | GI50 [29]: 3.72 µM | TGI [29]: > 100 µM | GI50 [30]: 3.32 µM | TGI [30]: > 100 µM | GI50 [31]: 2.02 µM | TGI [31]: 4.5 µM | GI50 [32]: 3.11 µM | TGI [32]: > 100 µM | GI50 [33]: 3.92 µM | TGI [33]: > 100 µM | GI50 [34]: 4.03 µM | TGI [34]: > 100 µM | GI50 [35]: 3.96 µM | TGI [35]: > 100 µM | GI50 [36]: 4.55 µM | TGI [36]: > 100 µM | GI50 [37]: 5.09 µM | TGI [37]: > 100 µM | GI50 [38]: 3.04 µM | TGI [38]: 9.71 µM | GI50 [39]: 11.3 µM | TGI [39]: > 100 µM | GI50 [40]: > 100 µM | TGI [40]: > 100 µM | GI50 [41]: 8.28 µM | TGI [41]: > 100 µM | GI50 [42]: > 100 µM | TGI [42]: > 100 µM | GI50 [43]: 3.23 µM | TGI [43]: > 100 µM | GI50 [44]: > 100 µM | TGI [44]: > 100 µM | GI50 [45]: 2.96 µM | TGI [45]: > 100 µM | GI50 [46]: > 100 µM | TGI [46]: > 100 µM | GI50 [47]: 3.01 µM | TGI [47]: > 100 µM | GI50 [48]: 2.91 µM | TGI [48]: > 100 µM | GI50 [49]: 3.91 µM | TGI [49]: > 100 µM | GI50 [50]: 7.6 µM | TGI [50]: > 100 µM | GI50 [51]: 1.79 µM | TGI [51]: 4.36 µM | GI50 [52]: > 100 µM | TGI [52]: > 100 µM | GI50 [53]: > 100 µM | TGI [53]: > 100 µM

NCCN1CCN(c2nc(-c3ccccc3)nc3nc(-c4ccccc4)oc23)CC1
GI50 [1]: 1.77 µM | TGI [1]: 3.64 µM | GI50 [2]: 1.69 µM | TGI [2]: 3.31 µM | GI50 [3]: 1.85 µM | TGI [3]: 3.91 µM | GI50 [4]: 1.81 µM | TGI [4]: 3.29 µM | GI50 [5]: 1.68 µM | TGI [5]: 3.31 µM | GI50 [6]: 1.64 µM | TGI [6]: 3.17 µM | GI50 [7]: 0.919 µM | TGI [7]: 3.29 µM | GI50 [8]: 1.93 µM | TGI [8]: 3.92 µM | GI50 [9]: 1.92 µM | TGI [9]: 3.45 µM | GI50 [10]: 1.67 µM | TGI [10]: 3.36 µM | GI50 [11]: 1.63 µM | TGI [11]: 3.06 µM | GI50 [13]: 1.49 µM | TGI [13]: 2.97 µM | GI50 [14]: 1.86 µM | TGI [14]: 4.48 µM | GI50 [15]: 2.03 µM | TGI [15]: 4.55 µM | GI50 [16]: 1.35 µM | TGI [16]: 2.87 µM | GI50 [17]: 2.22 µM | TGI [17]: 5.06 µM | GI50 [18]: 1.97 µM | TGI [18]: 4 µM | GI50 [19]: 1.8 µM | TGI [19]: 3.49 µM | GI50 [20]: 0.287 µM | TGI [20]: 1.01 µM | GI50 [21]: 1.86 µM | TGI [21]: 3.47 µM | GI50 [54]: 2.04 µM | TGI [54]: 3.72 µM | GI50 [22]: 1.75 µM | TGI [22]: 3.39 µM | GI50 [23]: 1.31 µM | TGI [23]: 2.86 µM | GI50 [24]: 1.83 µM | TGI [24]: 3.56 µM | GI50 [25]: 1.82 µM | TGI [25]: 3.32 µM | GI50 [26]: 2.08 µM | TGI [26]: 4.62 µM | GI50 [27]: 1.97 µM | TGI [27]: 4.13 µM | GI50 [55]: 1.69 µM | TGI [55]: 3.21 µM | GI50 [28]: 1.94 µM | TGI [28]: 3.69 µM | GI50 [29]: 2.16 µM | TGI [29]: 5.05 µM | GI50 [30]: 1.9 µM | TGI [30]: 3.97 µM | GI50 [32]: 2.15 µM | TGI [32]: 4.42 µM | GI50 [33]: 1.77 µM | TGI [33]: 3.26 µM | GI50 [34]: 1.98 µM | TGI [34]: 4.46 µM | GI50 [35]: 1.59 µM | TGI [35]: 3.06 µM | GI50 [36]: 1.88 µM | TGI [36]: 4.62 µM | GI50 [56]: 1.63 µM | TGI [56]: 3.41 µM | GI50 [37]: 1.85 µM | TGI [37]: 3.96 µM | GI50 [38]: 1.89 µM | TGI [38]: 3.6 µM | GI50 [39]: 1.79 µM | TGI [39]: 3.25 µM | GI50 [40]: 22.3 µM | TGI [40]: 47.7 µM | GI50 [41]: 1.79 µM | TGI [41]: 3.35 µM | GI50 [42]: 1.74 µM | TGI [42]: 3.18 µM | GI50 [43]: 1.91 µM | TGI [43]: 3.69 µM | GI50 [44]: 1.8 µM | TGI [44]: 3.5 µM | GI50 [45]: 1.82 µM | TGI [45]: 3.46 µM | GI50 [46]: 1.3 µM | TGI [46]: 2.6 µM | GI50 [48]: 1.71 µM | TGI [48]: 3.3 µM | GI50 [49]: 2.05 µM | TGI [49]: 4.66 µM | GI50 [50]: 1.65 µM | TGI [50]: 3.39 µM | GI50 [52]: 3.34 µM | TGI [52]: 13.4 µM | GI50 [53]: 1.85 µM | TGI [53]: 3.47 µM | GI50 [57]: 1.46 µM | TGI [57]: 3.01 µM
